{"source": "patent US12345718B2", "about": "“Method for determining the haemoglobin content of an erythroid cell” (UNIVERSITÉ PARIS EST CRÉTEIL VAL DE MARNE, priority 2016, dated 2025)", "tested_on": "HbF", "assay": "HbF content of each red blood cell by flow cytometry (HbF distribution) during treatment with hydroxyurea", "data": [{"compound": "NC(=O)NO", "note": "[hydroxyurea]", "values": [{"measurement": "% RBCs with HbF [8; 10[ pg", "setting": "patient 2, M3-M4", "value": 8.75, "unit": "% RBCs"}, {"measurement": "% RBCs with HbF [10; 15[ pg", "setting": "patient 2, M3-M4", "value": 8.50, "unit": "% RBCs"}, {"measurement": "% RBCs with HbF [15; 20[ pg", "setting": "patient 2, M3-M4", "value": 14.54, "unit": "% RBCs"}, {"measurement": "% RBCs with HbF ≥20 pg", "setting": "patient 2, M3-M4", "value": 33.30, "unit": "% RBCs"}, {"measurement": "change in red blood cells containing HbF content greater than 20 pg", "setting": "patient 2, at M6", "value": "clear increase"}, {"measurement": "% RBCs with HbF [0; 2[ pg", "setting": "patient 2, ≥M6", "value": 4.98, "unit": "% RBCs"}, {"measurement": "% RBCs with HbF [2; 4[ pg", "setting": "patient 2, ≥M6", "value": 7.04, "unit": "% RBCs"}, {"measurement": "% RBCs with HbF [4; 6[ pg", "setting": "patient 2, ≥M6", "value": 5.53, "unit": "% RBCs"}, {"measurement": "% RBCs with HbF [6; 8[ pg", "setting": "patient 2, ≥M6", "value": 4.85, "unit": "% RBCs"}, {"measurement": "% RBCs with HbF [8; 10[ pg", "setting": "patient 2, ≥M6", "value": 4.56, "unit": "% RBCs"}, {"measurement": "% RBCs with HbF [10; 15[ pg", "setting": "patient 2, ≥M6", "value": 7.48, "unit": "% RBCs"}, {"measurement": "% RBCs with HbF [15; 20[ pg", "setting": "patient 2, ≥M6", "value": 9.75, "unit": "% RBCs"}, {"measurement": "% RBCs with HbF ≥20 pg", "setting": "patient 2, ≥M6", "value": 55.81, "unit": "% RBCs"}, {"measurement": "% RBCs with HbF [0; 2[ pg", "setting": "patient 11, D15-M1", "value": 55.38, "unit": "% RBCs"}, {"measurement": "% RBCs with HbF [2; 4[ pg", "setting": "patient 11, D15-M1", "value": 23.31, "unit": "% RBCs"}, {"measurement": "% RBCs with HbF [4; 6[ pg", "setting": "patient 11, D15-M1", "value": 6.25, "unit": "% RBCs"}, {"measurement": "% RBCs with HbF [6; 8[ pg", "setting": "patient 11, D15-M1", "value": 3.07, "unit": "% RBCs"}, {"measurement": "% RBCs with HbF [8; 10[ pg", "setting": "patient 11, D15-M1", "value": 2.55, "unit": "% RBCs"}, {"measurement": "% RBCs with HbF [10; 15[ pg", "setting": "patient 11, D15-M1", "value": 2.24, "unit": "% RBCs"}, {"measurement": "% RBCs with HbF [15; 20[ pg", "setting": "patient 11, D15-M1", "value": 4.42, "unit": "% RBCs"}, {"measurement": "% RBCs with HbF ≥20 pg", "setting": "patient 11, D15-M1", "value": 2.78, "unit": "% RBCs"}, {"measurement": "% RBCs with HbF [0; 2[ pg", "setting": "patient 11, M3-M4", "value": 48.83, "unit": "% RBCs"}, {"measurement": "% RBCs with HbF [2; 4[ pg", "setting": "patient 11, M3-M4", "value": 31.73, "unit": "% RBCs"}, {"measurement": "% RBCs with HbF [4; 6[ pg", "setting": "patient 11, M3-M4", "value": 9.30, "unit": "% RBCs"}, {"measurement": "% RBCs with HbF [6; 8[ pg", "setting": "patient 11, M3-M4", "value": 4.32, "unit": "% RBCs"}, {"measurement": "% RBCs with HbF [8; 10[ pg", "setting": "patient 11, M3-M4", "value": 2.04, "unit": "% RBCs"}, {"measurement": "% RBCs with HbF [10; 15[ pg", "setting": "patient 11, M3-M4", "value": 0.72, "unit": "% RBCs"}, {"measurement": "% RBCs with HbF [15; 20[ pg", "setting": "patient 11, M3-M4", "value": 2.46, "unit": "% RBCs"}, {"measurement": "% RBCs with HbF ≥20 pg", "setting": "patient 11, M3-M4", "value": 0.59, "unit": "% RBCs"}, {"measurement": "RBCs >6 pg HbF", "setting": "patient 11, at 6 months of treatment", "value": 57, "unit": "%"}, {"measurement": "decrease of red blood cells with HbF content of less than 2 pg", "setting": "patient 11, at M6", "value": "approximately 73%"}, {"measurement": "% RBCs with HbF [0; 2[ pg", "setting": "patient 11, ≥M6", "value": 12.93, "unit": "% RBCs"}, {"measurement": "% RBCs with HbF [2; 4[ pg", "setting": "patient 11, ≥M6", "value": 17.62, "unit": "% RBCs"}, {"measurement": "% RBCs with HbF [4; 6[ pg", "setting": "patient 11, ≥M6", "value": 11.85, "unit": "% RBCs"}, {"measurement": "% RBCs with HbF [6; 8[ pg", "setting": "patient 11, ≥M6", "value": 8.05, "unit": "% RBCs"}, {"measurement": "% RBCs with HbF [8; 10[ pg", "setting": "patient 11, ≥M6", "value": 6.08, "unit": "% RBCs"}, {"measurement": "% RBCs with HbF [10; 15[ pg", "setting": "patient 11, ≥M6", "value": 6.13, "unit": "% RBCs"}, {"measurement": "% RBCs with HbF [15; 20[ pg", "setting": "patient 11, ≥M6", "value": 9.77, "unit": "% RBCs"}, {"measurement": "% RBCs with HbF ≥20 pg", "setting": "patient 11, ≥M6", "value": 27.57, "unit": "% RBCs"}, {"measurement": "% RBCs with HbF [0; 2[ pg", "setting": "patient 24, D15-M1", "value": 53.17, "unit": "% RBCs"}, {"measurement": "% RBCs with HbF [2; 4[ pg", "setting": "patient 24, D15-M1", "value": 11.57, "unit": "% RBCs"}, {"measurement": "% RBCs with HbF [4; 6[ pg", "setting": "patient 24, D15-M1", "value": 6.69, "unit": "% RBCs"}, {"measurement": "% RBCs with HbF [6; 8[ pg", "setting": "patient 24, D15-M1", "value": 5.58, "unit": "% RBCs"}, {"measurement": "% RBCs with HbF [8; 10[ pg", "setting": "patient 24, D15-M1", "value": 4.50, "unit": "% RBCs"}, {"measurement": "% RBCs with HbF [10; 15[ pg", "setting": "patient 24, D15-M1", "value": 3.89, "unit": "% RBCs"}, {"measurement": "% RBCs with HbF [15; 20[ pg", "setting": "patient 24, D15-M1", "value": 7.56, "unit": "% RBCs"}, {"measurement": "% RBCs with HbF ≥20 pg", "setting": "patient 24, D15-M1", "value": 7.04, "unit": "% RBCs"}, {"measurement": "% RBCs with HbF [0; 2[ pg", "setting": "patient 24, M3-M4", "value": 44.56, "unit": "% RBCs"}, {"measurement": "% RBCs with HbF [2; 4[ pg", "setting": "patient 24, M3-M4", "value": 24.93, "unit": "% RBCs"}, {"measurement": "% RBCs with HbF [4; 6[ pg", "setting": "patient 24, M3-M4", "value": 12.53, "unit": "% RBCs"}, {"measurement": "% RBCs with HbF [6; 8[ pg", "setting": "patient 24, M3-M4", "value": 5.81, "unit": "% RBCs"}, {"measurement": "% RBCs with HbF [8; 10[ pg", "setting": "patient 24, M3-M4", "value": 3.09, "unit": "% RBCs"}, {"measurement": "% RBCs with HbF [10; 15[ pg", "setting": "patient 24, M3-M4", "value": 1.87, "unit": "% RBCs"}, {"measurement": "% RBCs with HbF [15; 20[ pg", "setting": "patient 24, M3-M4", "value": 3.81, "unit": "% RBCs"}, {"measurement": "% RBCs with HbF ≥20 pg", "setting": "patient 24, M3-M4", "value": 3.41, "unit": "% RBCs"}, {"measurement": "RBCs >6 pg HbF", "setting": "patient 24, at 6 months of treatment", "value": 24, "unit": "%"}, {"measurement": "decrease of red blood cells with HbF content of less than 2 pg", "setting": "patient 24, at M6", "value": "approximately 40%"}, {"measurement": "% RBCs with HbF [0; 2[ pg", "setting": "patient 24, ≥M6", "value": 36.98, "unit": "% RBCs"}, {"measurement": "% RBCs with HbF [2; 4[ pg", "setting": "patient 24, ≥M6", "value": 25.28, "unit": "% RBCs"}, {"measurement": "% RBCs with HbF [4; 6[ pg", "setting": "patient 24, ≥M6", "value": 13.64, "unit": "% RBCs"}, {"measurement": "% RBCs with HbF [6; 8[ pg", "setting": "patient 24, ≥M6", "value": 6.92, "unit": "% RBCs"}, {"measurement": "% RBCs with HbF [8; 10[ pg", "setting": "patient 24, ≥M6", "value": 3.93, "unit": "% RBCs"}, {"measurement": "% RBCs with HbF [10; 15[ pg", "setting": "patient 24, ≥M6", "value": 2.70, "unit": "% RBCs"}, {"measurement": "% RBCs with HbF [15; 20[ pg", "setting": "patient 24, ≥M6", "value": 5.36, "unit": "% RBCs"}, {"measurement": "% RBCs with HbF ≥20 pg", "setting": "patient 24, ≥M6", "value": 5.20, "unit": "% RBCs"}, {"measurement": "patients in whom HbF distribution becomes homogeneous", "setting": "starting from M2", "value": 1, "unit": "patient"}]}]}
